Measurements published in US20250319212A1, “GADOLINIUM-BASED COMPOUND, AND MRI CONTRAST AGENT INCLUDING SAME” (KYUNGPOOK NATIONAL UNIVERSITY INDUSTRY-ACADEMIC COOPERATION …, priority 2021, published 2025).

Tests used:
amyloid beta polymer = amyloid beta polymer (Homo sapiens, UniProt P05067); experiment: Amyloid beta polymer targeting ability, phantom experiment on 9.4T MR; assay type: binding; settings: incubated with amyloid beta polymer 37° C. 24 hours, washed pellet, FIG. 6
Procedure: (1) 221.5 μL of HFIP was added to 1 mg of amyloid beta at a concentration of 1 mM, followed by shaking for 1 hour at room temperature using a shaker to remove preaggregation. (2) The amyloid beta from which the preaggregation was removed was dried, and 221.5 μL of DMSO was added thereto to achieve a 1 mM concentration. Using a mixer and sonicator, a suspension thereof was prepared, and 878.5 μL of PBS (1×, pH 7.4) was added thereto to achieve a 0.2 mM concentration. (3) After incubating the suspension at 37° C. for 4 days using a shaker, the polymerized amyloid beta polymer was dispensed by 200 μL. Then, 20 μL of a solution in which each of Gd-DO3A-Hba and the commercial contrast agent (Gadovist®) was dissolved in PBS at 2 mM concentration was added thereto. The incubation was carried out thereon at 37° C. for 24 hours using a shaker. (4) After 24 hours has elapsed, centrifugation was performed thereon to remove the supernatant therefrom. The amyloid beta polymer was washed using PBS. 200 μL of a solution of PBS:DMSO=9:1 was added to a pellet to prepare an MRI phantom sample. As a control, a phantom sample obtained by incubating only the amyloid beta polymer was used. […]

[1] = Measurement of relaxivity (r1, r2) in 3T MRI phantom; assay type: physicochemical; settings: tertiary distilled water, 0.0625-1 mM, linear regression, in mM-1·s-1 (unit assumed)
Procedure: The relaxivity (r1, r2) of each of synthesized Gd-DO3A-Hba, and cyclic commercial contrast agents Gadovist® and Dotarem® as comparison groups material was measured. Specifically, a phantom was prepared by diluting the gadolinium complex in tertiary distilled water to five concentrations (0.0625, 0.125, 0.25, 0.5, 1 mM), and then T1 and T2 relaxation times were measured in 3T MRI. Thus, R (Relaxation rate=1/T) of each concentration was calculated and the relaxivity (r1, r2) result of the gadolinium complex was obtained through linear regression analysis (see FIG. 3) and shown in a following Table 1.

amyloid beta polymer, sequence (P05067 672-713 limits assumed): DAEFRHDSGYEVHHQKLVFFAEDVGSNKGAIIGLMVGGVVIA

Row | Compound | signal intensity / contrast enhancement compared to phantom of only amyloid beta polymer (amyloid beta polymer) | relaxivity r1 [1] | relaxivity r2 [1]
1 | O=C([O-])CN1CCN(CC(=O)[O-])CCN([C@H](CO)[C@H](O)CO)CCN(CC(=O)[O-])CC1.[Gd+3] (racemic) [Gadovist ®] | little difference in contrast enhancement effect | 3.9 ± 0.1 | 4.9 ± 0.1
2 | O=C([O-])CN1CCN(CC(=O)[O-])CCN(CC(=O)[O-])CCN(CC(=O)[O-])CC1.[Gd+3] [Dotarem ®, Gd-DOTA] | – | 3.4 ± 0.1 | 3.9 ± 0.2
